Experimental data taken from ChEMBL document CHEMBL1140423, “(6,7-Dimethoxy-2,4-dihydroindeno[1,2-c]pyrazol-3-yl)phenylamines: platelet-derived growth factor receptor tyrosine kinase inhibitors with broad antiproliferative activity against tumor cells” (J Med Chem, 2005).
pIC50: −log10 of the molar value.

Assays:
[1] = target: Platelet-derived growth factor receptor beta (Homo sapiens, UniProt P09619); test: Inhibitory activity against PDGFRbeta kinase
[2] = target: cAMP-dependent protein kinase (PKA) (Homo sapiens, UniProt P22694+P17612+P22612); test: Inhibitory activity against PKA; format: protein assay
LNCaP = test: Antiproliferative activity against human prostate tumor cell line LnCAP; format: functional, cell-based
U-87 MG = test: Antiproliferative activity against human glioma tumor cell line U87MG; format: functional, cell-based, U-87MG ATCC
[3] = target: Vascular endothelial growth factor receptor (Homo sapiens, UniProt P17948+P35916+P35968); test: Inhibitory activity against VEGFR; format: protein assay
PC-3 = test: Antiproliferative activity against human prostate tumor cell line PC3; format: functional, cell-based
[4] = target: Proto-oncogene tyrosine-protein kinase Src (Homo sapiens, UniProt P12931); test: Inhibitory activity against c-SRC
Proto-oncogene tyrosine-protein kinase Src, sequence (P12931 2-536 limits assumed): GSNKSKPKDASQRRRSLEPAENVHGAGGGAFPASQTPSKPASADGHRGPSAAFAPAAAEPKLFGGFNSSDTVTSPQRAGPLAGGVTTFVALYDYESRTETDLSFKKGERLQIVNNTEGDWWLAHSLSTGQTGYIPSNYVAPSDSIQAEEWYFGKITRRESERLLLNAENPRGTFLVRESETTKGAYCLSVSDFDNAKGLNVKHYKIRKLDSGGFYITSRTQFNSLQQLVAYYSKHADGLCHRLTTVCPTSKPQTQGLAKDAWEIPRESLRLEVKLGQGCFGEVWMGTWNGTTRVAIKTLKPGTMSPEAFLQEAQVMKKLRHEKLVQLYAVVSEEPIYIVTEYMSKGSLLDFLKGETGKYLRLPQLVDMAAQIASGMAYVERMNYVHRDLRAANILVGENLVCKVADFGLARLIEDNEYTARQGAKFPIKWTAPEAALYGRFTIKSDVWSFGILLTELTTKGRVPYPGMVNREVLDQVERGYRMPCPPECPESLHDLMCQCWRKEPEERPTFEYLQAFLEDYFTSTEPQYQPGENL

NCI-H460 = test: Antiproliferative activity against human lung tumor cell line H460; format: functional, cell-based
Insulin receptor = Insulin receptor (Homo sapiens, UniProt P06213); test: Inhibitory activity against IRK
Focal adhesion kinase 1 = Focal adhesion kinase 1 (Homo sapiens, UniProt Q05397); test: Inhibitory activity against FAK
[5] = target: Platelet-derived growth factor receptor alpha (Homo sapiens, UniProt P16234); test: Inhibitory activity against PDGFRalpha
[6] = target: Cyclin-dependent kinase 4 (Homo sapiens, UniProt P11802); test: Inhibitory activity against CDK4
Cyclin-dependent kinase 4, sequence (P11802 whole entry): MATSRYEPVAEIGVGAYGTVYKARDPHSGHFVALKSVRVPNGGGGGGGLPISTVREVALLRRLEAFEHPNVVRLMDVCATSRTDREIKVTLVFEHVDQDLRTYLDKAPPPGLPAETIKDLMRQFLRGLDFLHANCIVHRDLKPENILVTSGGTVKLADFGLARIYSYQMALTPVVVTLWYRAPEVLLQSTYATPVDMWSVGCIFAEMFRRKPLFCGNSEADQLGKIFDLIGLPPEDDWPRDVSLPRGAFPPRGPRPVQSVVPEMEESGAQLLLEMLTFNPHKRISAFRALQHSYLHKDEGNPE

[7] = target: Cyclin-dependent kinase 2 (Homo sapiens, UniProt P24941); test: Inhibitory activity against CDK2
LoVo = test: Antiproliferative activity against human colon tumor cell line LoVo; format: functional, cell-based
A-375 = test: Antiproliferative activity against human melanoma tumor cell line A375; format: functional, cell-based
Casein kinase II = Casein kinase II (Homo sapiens, UniProt P19784+P67870+P68400); test: Inhibitory activity against Casein Kinase 2; format: protein-complex assay
Casein kinase II, sequence (P67870 whole entry): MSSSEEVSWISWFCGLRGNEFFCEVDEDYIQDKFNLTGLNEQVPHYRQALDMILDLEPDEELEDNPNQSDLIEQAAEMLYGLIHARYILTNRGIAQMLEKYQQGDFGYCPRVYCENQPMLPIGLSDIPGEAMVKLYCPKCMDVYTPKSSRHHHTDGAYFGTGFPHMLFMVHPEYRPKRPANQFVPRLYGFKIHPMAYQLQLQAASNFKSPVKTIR
Casein kinase II, sequence (P68400 whole entry): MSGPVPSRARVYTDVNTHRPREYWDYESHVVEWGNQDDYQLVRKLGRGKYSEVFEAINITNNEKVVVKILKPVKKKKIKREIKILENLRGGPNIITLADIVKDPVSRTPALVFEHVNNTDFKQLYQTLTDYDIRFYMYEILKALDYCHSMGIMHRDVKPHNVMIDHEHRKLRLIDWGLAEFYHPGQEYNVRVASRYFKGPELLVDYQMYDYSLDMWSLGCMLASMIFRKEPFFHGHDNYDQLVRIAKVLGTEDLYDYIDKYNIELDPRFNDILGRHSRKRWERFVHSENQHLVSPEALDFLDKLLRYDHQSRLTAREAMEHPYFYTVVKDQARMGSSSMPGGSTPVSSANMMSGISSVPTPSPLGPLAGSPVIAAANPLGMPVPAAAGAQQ
Casein kinase II, sequence (P19784 whole entry): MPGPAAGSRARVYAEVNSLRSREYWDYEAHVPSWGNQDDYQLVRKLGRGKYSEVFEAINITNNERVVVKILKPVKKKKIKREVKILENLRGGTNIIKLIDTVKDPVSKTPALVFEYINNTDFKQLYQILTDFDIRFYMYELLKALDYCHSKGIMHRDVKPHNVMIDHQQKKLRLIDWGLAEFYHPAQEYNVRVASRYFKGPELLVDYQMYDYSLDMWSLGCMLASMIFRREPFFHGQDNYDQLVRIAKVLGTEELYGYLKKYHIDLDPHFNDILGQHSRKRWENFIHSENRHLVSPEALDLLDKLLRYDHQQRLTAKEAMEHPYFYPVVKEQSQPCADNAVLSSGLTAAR

[8] = target: Glycogen synthase kinase-3 (Homo sapiens, UniProt P49840+P49841); test: Inhibitory activity against GSK3; format: protein assay
ASPC1 = test: Antiproliferative activity against human pancreatic tumor cell line AsPC1; format: functional, cell-based
[9] = target: Cyclin-dependent kinase 7 (Homo sapiens, UniProt P50613); test: Inhibitory activity against CDK7
Cyclin-dependent kinase 7, sequence (P50613 whole entry): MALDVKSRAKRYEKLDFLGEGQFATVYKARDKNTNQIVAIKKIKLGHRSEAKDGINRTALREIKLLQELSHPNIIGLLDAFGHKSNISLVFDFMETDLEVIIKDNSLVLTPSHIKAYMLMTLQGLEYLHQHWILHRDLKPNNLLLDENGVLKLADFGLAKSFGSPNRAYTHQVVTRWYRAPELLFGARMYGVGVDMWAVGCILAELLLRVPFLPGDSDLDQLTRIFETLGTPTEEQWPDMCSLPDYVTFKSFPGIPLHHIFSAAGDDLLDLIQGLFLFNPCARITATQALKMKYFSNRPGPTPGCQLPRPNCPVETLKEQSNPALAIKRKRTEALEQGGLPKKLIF

HUVEC = test: Antiproliferative activity against LSGS stimulated HUVEC; format: functional, cell-based; conditions: Homo sapiens
[10] = target: Tyrosine-protein kinase Fyn (Homo sapiens, UniProt P06241); test: Inhibitory activity against FYN
Tyrosine-protein kinase Fyn, sequence (P06241 whole entry): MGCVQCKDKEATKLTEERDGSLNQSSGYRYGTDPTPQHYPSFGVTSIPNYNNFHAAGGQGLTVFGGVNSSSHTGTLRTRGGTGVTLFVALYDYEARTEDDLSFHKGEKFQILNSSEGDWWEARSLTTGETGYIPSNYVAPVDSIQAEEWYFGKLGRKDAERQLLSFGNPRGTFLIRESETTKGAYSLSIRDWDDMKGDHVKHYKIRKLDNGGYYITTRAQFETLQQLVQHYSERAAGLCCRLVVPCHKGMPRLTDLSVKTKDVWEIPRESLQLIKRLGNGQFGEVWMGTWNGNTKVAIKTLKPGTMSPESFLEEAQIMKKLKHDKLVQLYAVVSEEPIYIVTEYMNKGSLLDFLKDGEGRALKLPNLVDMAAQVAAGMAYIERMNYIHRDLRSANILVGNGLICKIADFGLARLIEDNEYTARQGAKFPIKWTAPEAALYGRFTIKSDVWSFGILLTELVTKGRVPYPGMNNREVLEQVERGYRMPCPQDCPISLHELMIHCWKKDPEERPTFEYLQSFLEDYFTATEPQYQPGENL

[11] = target: Mitogen-activated protein kinase 1 (Homo sapiens, UniProt P28482); test: Inhibitory activity against MAPK
[12] = target: Cyclin-dependent kinase 1 (Homo sapiens, UniProt P06493); test: Inhibitory activity against CDK1
Cyclin-dependent kinase 1, sequence (P06493 whole entry): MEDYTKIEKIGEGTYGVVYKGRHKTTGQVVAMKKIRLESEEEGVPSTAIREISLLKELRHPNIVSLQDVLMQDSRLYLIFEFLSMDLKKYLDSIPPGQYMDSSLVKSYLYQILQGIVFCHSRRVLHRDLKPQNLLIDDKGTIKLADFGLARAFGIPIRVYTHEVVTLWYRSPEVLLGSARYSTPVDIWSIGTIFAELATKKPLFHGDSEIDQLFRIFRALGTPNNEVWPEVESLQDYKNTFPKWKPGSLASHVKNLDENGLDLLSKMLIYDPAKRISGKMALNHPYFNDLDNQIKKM

[13] = target: Receptor tyrosine-protein kinase erbB-2 (Homo sapiens, UniProt P04626); test: Inhibitory activity against HER2
[14] = Inhibitory activity against Calmodulin Kinase
T47D = test: Antiproliferative activity against human breast tumor cell line T47D; format: functional, cell-based
[15] = target: Fibroblast growth factor receptor 1 (Homo sapiens, UniProt P11362); test: Inhibitory activity against bFGFR1
Fibroblast growth factor receptor 1, sequence (P11362 whole entry): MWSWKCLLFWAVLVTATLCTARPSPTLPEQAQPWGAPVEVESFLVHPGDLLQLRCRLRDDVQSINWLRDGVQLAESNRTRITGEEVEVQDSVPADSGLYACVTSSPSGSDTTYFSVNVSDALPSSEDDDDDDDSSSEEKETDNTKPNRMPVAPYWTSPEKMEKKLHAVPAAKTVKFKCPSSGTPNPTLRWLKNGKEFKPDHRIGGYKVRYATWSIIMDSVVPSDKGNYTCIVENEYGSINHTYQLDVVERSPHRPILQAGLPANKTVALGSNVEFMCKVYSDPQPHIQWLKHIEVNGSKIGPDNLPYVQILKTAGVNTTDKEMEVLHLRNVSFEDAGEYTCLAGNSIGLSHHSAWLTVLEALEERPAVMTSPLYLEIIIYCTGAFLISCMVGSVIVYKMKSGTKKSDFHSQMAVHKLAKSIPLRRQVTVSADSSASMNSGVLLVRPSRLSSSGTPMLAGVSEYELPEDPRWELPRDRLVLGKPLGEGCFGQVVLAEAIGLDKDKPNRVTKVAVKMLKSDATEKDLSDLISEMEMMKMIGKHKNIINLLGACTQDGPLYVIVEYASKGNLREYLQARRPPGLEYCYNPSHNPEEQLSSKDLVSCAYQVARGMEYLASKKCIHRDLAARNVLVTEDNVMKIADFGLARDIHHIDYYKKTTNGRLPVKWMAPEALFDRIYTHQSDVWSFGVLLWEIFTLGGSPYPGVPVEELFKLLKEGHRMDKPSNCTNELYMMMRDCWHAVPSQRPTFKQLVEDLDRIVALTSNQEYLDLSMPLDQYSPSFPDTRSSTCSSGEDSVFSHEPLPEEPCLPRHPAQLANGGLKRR

Platelet-derived growth factor receptor beta, sequence (P09619 whole entry): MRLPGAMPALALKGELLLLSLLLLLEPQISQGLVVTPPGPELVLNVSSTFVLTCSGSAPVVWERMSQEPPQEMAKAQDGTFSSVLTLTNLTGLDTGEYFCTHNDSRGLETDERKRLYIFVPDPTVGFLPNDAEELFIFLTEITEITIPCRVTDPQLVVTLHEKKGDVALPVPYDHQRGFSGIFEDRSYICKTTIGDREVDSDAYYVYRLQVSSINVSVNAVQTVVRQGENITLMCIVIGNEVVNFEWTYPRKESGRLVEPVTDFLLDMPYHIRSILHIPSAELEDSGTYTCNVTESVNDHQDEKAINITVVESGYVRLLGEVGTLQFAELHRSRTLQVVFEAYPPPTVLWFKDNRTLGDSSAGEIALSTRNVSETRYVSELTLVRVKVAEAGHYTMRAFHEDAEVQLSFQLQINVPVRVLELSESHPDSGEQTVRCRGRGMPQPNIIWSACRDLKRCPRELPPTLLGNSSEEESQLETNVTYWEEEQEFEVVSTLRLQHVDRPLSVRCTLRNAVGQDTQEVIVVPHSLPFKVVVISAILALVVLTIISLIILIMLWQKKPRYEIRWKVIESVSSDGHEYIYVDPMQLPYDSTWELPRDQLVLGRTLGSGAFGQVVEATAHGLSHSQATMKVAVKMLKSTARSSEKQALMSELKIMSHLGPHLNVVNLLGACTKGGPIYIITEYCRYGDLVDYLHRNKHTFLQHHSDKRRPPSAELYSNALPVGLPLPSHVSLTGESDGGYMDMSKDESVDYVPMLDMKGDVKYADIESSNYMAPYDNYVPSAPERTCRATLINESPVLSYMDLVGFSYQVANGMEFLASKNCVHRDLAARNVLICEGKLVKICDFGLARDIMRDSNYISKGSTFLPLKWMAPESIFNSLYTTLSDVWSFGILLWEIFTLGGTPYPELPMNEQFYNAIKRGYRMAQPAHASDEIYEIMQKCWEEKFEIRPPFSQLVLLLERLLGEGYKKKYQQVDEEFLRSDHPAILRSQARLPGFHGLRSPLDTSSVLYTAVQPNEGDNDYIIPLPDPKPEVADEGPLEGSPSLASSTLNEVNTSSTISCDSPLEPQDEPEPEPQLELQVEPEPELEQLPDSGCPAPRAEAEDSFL

Row | Compound | pIC50 [1] | pIC50 (LNCaP) | pIC50 (U-87 MG) | pIC50 (PC-3) | pIC50 (NCI-H460) | pIC50 (LoVo) | pIC50 (A-375) | pIC50 (ASPC1) | pIC50 (T47D) | pIC50 (HUVEC) | also measured
1 | COc1cccc(Nc2[nH]nc3c2Cc2cc(OC)c(OC)cc2-3)c1 |  | 8.30 | < 4.00 |  | 8.40 | 8.40 | 8.40 | 6.45 | 7.48 | 7.96 | 
2 | COc1cc2c(cc1OC)-c1[nH]nc(-c3ccccc3)c1C2 | 7.77 | 5.92 | < 4.30 | 4.51 | 5.08 | 5.57 | 5.05 | 5.17 | 5.36 | 5.86 | 
3 | COc1cc2c(cc1OC)-c1n[nH]c(Nc3cccc(C(F)(F)F)c3)c1C2 | 7.42 | 6.59 | < 4.00 | 7.68 | 7.51 | 7.55 | 7.46 | 6.54 | 6.36 | 5.60 | 
4 | COc1cc2c(cc1OC)-c1n[nH]c(Nc3cccc(C(=O)O)c3)c1C2 | < 6.10 |  |  |  |  |  |  |  |  |  | 
5 | COC(=O)c1cccc(Nc2[nH]nc3c2Cc2cc(OC)c(OC)cc2-3)c1 | 7.48 |  |  |  |  |  |  |  |  |  | 
6 | COc1cccc2c1Cc1c-2n[nH]c1Nc1ccccc1 |  | 5.77 | < 4.00 | 5.13 | 5.55 | 6.10 | 5.92 | < 5.00 | 5.33 | 6.55 | 
7 | COc1ccc2c(c1)-c1n[nH]c(Nc3ccccc3)c1C2 |  | 4.84 | < 4.00 | < 5.00 |  |  | < 4.30 | < 5.00 | < 5.00 |  | 
8 | COc1cc2c(cc1OC)-c1n[nH]c(Nc3ccccc3)c1C2 | 8.05 | 6.22 | 4.68 | 6.97 | 6.45 | 6.91 | 7.21 | 5.67 | 6.38 | 7.51 | 

Further lines, with some results ahead:

Row | pIC50 [1] | pIC50 (LNCaP) | pIC50 (U-87 MG) | pIC50 (PC-3) | pIC50 (NCI-H460) | pIC50 (LoVo) | pIC50 (A-375) | pIC50 (ASPC1) | pIC50 (T47D) | Compound | pIC50 (HUVEC) | also measured
9 | 6.39 |  |  |  |  |  |  |  |  | COc1cc2c(cc1OC)-c1n[nH]c(Nc3ccc(Cl)c(Cl)c3)c1C2 |  | 
10 | 8.38 | 8.05 | 4.89 | 7.57 | 8.00 | 7.77 | 8.15 | 6.23 | 7.49 | COc1cc2c(cc1OC)-c1n[nH]c(Nc3cccc(F)c3)c1C2 | 5.31 | IC50 [2]: > 100000 nM; IC50 [3]: 3100 nM; pIC50 [4]: 6.73; pIC50 (Insulin receptor): < 4.00; pIC50 (Focal adhesion kinase 1): < 4.00; pIC50 [5]: 7.35; pIC50 [6]: < 4.00; pIC50 [7]: < 5.00; pIC50 (Casein kinase II): < 4.00; IC50 [8]: 13000 nM; pIC50 [9]: 4.25; pIC50 [10]: 6.42; pIC50 [11]: < 4.00; pIC50 [12]: < 4.00; pIC50 [13]: < 5.00; pIC50 [14]: < 5.00; pIC50 [15]: 4.34
11 | 8.30 | 8.70 | < 4.00 | 7.74 | 8.22 | 8.22 | 8.22 | 6.48 | 7.43 | COc1cc2c(cc1OC)-c1n[nH]c(Nc3cccc(Br)c3)c1C2 | 5.83 | 
12 | 5.27 |  |  |  |  |  |  |  |  | COc1cc2c(cc1OC)-c1n[nH]c(Nc3ccc(Cl)cc3Cl)c1C2 |  | 
13 |  |  | 4.62 |  |  |  |  |  |  | COc1cc2c(cc1OC)-c1n[nH]c(Nc3cccc(Cl)c3)c1C2 |  | 
14 | 6.51 |  |  |  |  |  |  |  |  | COc1cc2c(cc1OC)-c1n[nH]c(Nc3cc(Cl)cc(Cl)c3)c1C2 |  | 
15 |  | 9.00 | < 4.00 |  | 7.54 | 7.72 | 7.82 | 5.35 | 7.38 | COc1cc2c(cc1OC)-c1n[nH]c(Nc3cccc(C)c3)c1C2 | 8.10 | 
16 | 5.21 |  |  |  |  |  |  |  |  | COc1cc2c(cc1OC)-c1n[nH]c(Nc3cc(Cl)ccc3Cl)c1C2 |  | 
